The values below come from patent US6812243B2, “Indole derivatives and their use for the treatment of malignant and other diseases based on pathological proliferation” (Zentaris AG, priority 1998, dated 2004).

The test system of series [1] is sis-transformed NIH3T3 cells. As to the kind of experiment: Colony formation of sis-3T3 cells in soft agar. The format is cell-based. Conditions: Mus musculus, read-out: Colony formation (sis-3T3 cells), IC 50. The text has this: Furthermore, the compounds were investigated for a possible antitransforming action using sis-transformed NIH3T3 cells. In these cells, a transformed phenotype characterized, inter alia, by irregular multilayered growth and colony formation in soft agar is maintained by expression of PDGF-BB and permanent activation of the endogenous PDGF receptors.

Series [2] addresses T1, EGF receptor tyrosine kinase (Homo sapiens, UniProt P00533).
T1 construct: tested in intact A431 cells; endogenous in cells; host or cells: A431 cells
The series is described as follows: EGFR phosphorylation in intact A 431 cells. It is filed as cell-based. Particulars: intact A431 cells; read-out: EGFR phosphorylation in vivo (A 431 cells), IC 50. As for the experimental part:
The compounds according to the invention were furthermore investigated in vitro using isolated plasma membranes of Swiss 3T3 cells and using PDGF receptor purified from overexpressing cells, tested in intact A431 cells (and in some cases also in Swiss 3T3 plasma membranes) for possible inhibition of the EGF receptor tyrosine kinase and tested for inhibition of recombinant Src kinase.
30 μM. The compounds thus have specificity for the inhibition of the PDGF receptor tyrosine kinase in relation to other tyrosine kinases.

The test system of a further series is Swiss 3T3 cells. The series is described as follows: DNA synthesis in growth factor stimulated Swiss 3T3 cells. It is filed as cell-based. The source says: DNA synthesis tests in Swiss 3T3 cells which are stimulated with different growth factors are suitable for characterizing selective antiproliferative actions of receptor tyrosine kinase inhibitors. The compounds were investigated with respect to their action on the DNA sythesis stimulated in these cells by PDGF-BB, bFGF, FCS and the combination of EGF and insulin. These stimulants are approximately equipotent and increase the DNA synthesis in previously growth-arrested Swiss 3T3 cells to 5- to 20-fold.

The next series concerns the target T2, PDGF receptor (Mus musculus, UniProt P05622).
T2 construct: other: Swiss 3T3 cells, 2 h incubation with compound; PDGFR phosphorylation in vivo (Swiss 3T3 cells), IC 50; other: intact Swiss 3T3 cells; PDGFR phosphorylation in vitro (Swiss 3T3 membranes), IC 50; other: isolated plasma membranes of Swiss 3T3 cells
As to the kind of experiment: Inhibition of PDGF-dependent tyrosine phosphorylation in intact Swiss 3T3 cells. Conditions: 2 h incubation with compound, PDGF-BB 100 ng/ml for 5 min, read-out: IC 50 (μM), inhibition of PDGF-dependent tyrosine phosphorylation. The format is cell-based.

Like-named read-outs stand apart in the source and are kept apart here.

T1 sequence (P00533 25-1210): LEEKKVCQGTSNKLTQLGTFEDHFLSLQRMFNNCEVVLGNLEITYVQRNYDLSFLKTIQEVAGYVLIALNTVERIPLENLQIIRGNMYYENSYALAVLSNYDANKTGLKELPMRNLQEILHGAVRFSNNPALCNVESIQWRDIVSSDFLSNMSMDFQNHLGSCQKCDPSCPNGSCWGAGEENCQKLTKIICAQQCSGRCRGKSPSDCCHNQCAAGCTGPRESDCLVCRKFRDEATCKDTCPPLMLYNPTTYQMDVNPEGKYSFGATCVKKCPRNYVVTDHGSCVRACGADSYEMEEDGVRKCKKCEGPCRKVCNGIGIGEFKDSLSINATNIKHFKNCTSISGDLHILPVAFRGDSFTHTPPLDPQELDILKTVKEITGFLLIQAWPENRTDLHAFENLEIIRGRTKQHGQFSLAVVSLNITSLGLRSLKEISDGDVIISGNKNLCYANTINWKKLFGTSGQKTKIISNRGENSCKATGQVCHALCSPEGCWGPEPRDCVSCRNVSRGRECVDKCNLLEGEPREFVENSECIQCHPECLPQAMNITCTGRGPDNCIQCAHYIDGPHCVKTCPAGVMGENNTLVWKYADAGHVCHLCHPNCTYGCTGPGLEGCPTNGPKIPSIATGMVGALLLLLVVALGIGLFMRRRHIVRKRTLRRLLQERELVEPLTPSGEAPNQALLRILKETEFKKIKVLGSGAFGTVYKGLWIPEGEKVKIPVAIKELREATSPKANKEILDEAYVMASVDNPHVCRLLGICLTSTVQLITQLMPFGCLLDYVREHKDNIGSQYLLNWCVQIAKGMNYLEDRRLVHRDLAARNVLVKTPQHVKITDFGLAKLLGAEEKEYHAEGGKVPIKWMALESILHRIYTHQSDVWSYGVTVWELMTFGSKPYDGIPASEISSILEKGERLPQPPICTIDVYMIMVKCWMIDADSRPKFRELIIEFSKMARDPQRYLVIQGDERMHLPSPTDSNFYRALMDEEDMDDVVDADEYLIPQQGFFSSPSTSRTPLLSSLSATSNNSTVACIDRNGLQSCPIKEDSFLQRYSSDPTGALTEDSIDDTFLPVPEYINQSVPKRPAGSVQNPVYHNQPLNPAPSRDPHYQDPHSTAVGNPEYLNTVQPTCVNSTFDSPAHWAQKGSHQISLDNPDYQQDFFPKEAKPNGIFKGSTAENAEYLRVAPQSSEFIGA
T2 sequence (P05622 32-1098): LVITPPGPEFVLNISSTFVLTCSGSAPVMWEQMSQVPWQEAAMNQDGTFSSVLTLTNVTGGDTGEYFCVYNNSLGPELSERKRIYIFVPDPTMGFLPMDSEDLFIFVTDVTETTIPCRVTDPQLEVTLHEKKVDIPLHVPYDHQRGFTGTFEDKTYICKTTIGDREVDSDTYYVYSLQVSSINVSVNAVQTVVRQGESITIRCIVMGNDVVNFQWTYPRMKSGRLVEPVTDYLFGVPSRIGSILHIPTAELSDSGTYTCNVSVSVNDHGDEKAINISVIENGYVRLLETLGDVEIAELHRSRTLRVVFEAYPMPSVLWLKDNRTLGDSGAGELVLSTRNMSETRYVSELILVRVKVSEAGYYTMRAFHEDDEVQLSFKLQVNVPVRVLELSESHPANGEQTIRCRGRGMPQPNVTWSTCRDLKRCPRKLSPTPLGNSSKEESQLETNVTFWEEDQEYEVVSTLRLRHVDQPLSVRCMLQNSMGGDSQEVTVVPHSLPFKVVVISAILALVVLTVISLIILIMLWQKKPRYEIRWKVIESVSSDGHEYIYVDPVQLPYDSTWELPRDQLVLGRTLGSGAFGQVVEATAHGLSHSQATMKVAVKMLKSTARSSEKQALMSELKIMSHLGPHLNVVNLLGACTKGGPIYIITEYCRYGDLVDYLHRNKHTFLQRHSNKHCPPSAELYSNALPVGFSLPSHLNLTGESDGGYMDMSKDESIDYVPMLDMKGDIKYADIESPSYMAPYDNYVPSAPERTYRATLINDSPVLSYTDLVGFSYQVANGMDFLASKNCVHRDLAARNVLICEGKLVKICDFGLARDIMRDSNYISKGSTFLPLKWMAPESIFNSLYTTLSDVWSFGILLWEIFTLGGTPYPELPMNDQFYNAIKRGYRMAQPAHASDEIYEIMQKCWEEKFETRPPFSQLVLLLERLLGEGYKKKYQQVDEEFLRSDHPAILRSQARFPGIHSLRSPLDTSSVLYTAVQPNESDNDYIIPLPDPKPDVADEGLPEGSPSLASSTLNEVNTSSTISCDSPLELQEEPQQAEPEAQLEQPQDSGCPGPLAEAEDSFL
Procedure for PDGF receptor: Swiss 3T3 cells are cultured for 1 week under standard conditions (DMEM with glutamine, 4 g of glucose/1, 10% FCS, antibiotics, 5-7.5% CO2) and are confluent and no longer proliferating at the end of the culture period. The medium is replaced by serum-free DMEM and the cells are incubated at 37° C. for 2 h with the compounds according to the invention or, in control experiments, with DMSO (final concentration 0.1-1%). The cells are then stimulated at room temperature for 5 min by addition of PDGF-BB to a final concentration of 100 ng/ml, in controls addition of the corresponding solvent takes place. The cells are then washed twice with ice-cold PBS and lysed in a Triton X-100-containing lysis buffer (composition and process as described in Selective platelet-derived growth factor receptor kinase blockers reverse sis-transformation M. Kovalenko, A. Gazit, A. Böhmer, C. Rorsman, L. Rönnstrand, C. H. Heldin, J. Waltenberger, F. D. Böhmer, A. Levitzki (1994) Cancer Res. 54, 6106-6114). The lysates are centrifuged and the protein concentration is determined. […]
Tyrosine phosphorylation is detected by standard processes using antiphosphosphotyrosine [sic]antibodies. […] Quantification is carried out either by grey value analyses of films used for the luminescence detection or directly using a luminometer. […]

For the compound `O=C(c1cc2ccccc2[nH]1)c1cc2ccccc2[nH]1` [Example 19, Bisindol-2-ylmethan-1-one], the IC50 in series [1] was 3 to 10 µM; in series [2] it was > 10 µM; in the series on Swiss 3T3 cells (Swiss-3T3, read-out: DNA synthesis (Swiss 3T3 cells), 10% FCS, IC 50) it was > 30 µM; in the series with Swiss 3T3 cells (Swiss-3T3, read-out: DNA synthesis (Swiss 3T3 cells), EGF/insulin-stimulated, IC 50) it was > 30 µM; in the series with Swiss 3T3 cells (Swiss-3T3, read-out: DNA synthesis (Swiss 3T3 cells), FGF-stimulated, IC 50) it was 3 to 10 µM; in the series with Swiss 3T3 cells (Swiss-3T3, read-out: DNA synthesis (Swiss 3T3 cells), PDGF-stimulated, IC 50) it was 3 to 10 µM.
Compound `COc1ccc2[nH]c(C(=O)c3cc4ccccc4[nH]3)cc2c1` [Example 20, (5-Methoxyindol-2-yl)-(indol-2-yl)methan-1-one] yielded a melting point of 233 to 235 °C. Also, the IC50 in series [2] is > 10 µM.
For `O=C(Cc1cccs1)Oc1ccc2[nH]c(C(=O)c3cc4ccccc4[nH]3)cc2c1` [Example 58], at PDGF receptor, the IC50 lay in the range of 0.3 to 1 µM.
The compound `CN1C(=O)C(Br)=C(c2c(CCc3[nH]c4ccccc4c3C3=C(Br)C(=O)N(C)C3=O)[nH]c3ccccc23)C1=O` [Example 116, 3-Bromo-4-(2-(2-(3-(4-bromo-1-methyl-2,5-dioxo-2,5-dihydro-1H-3-pyrrolyl)-1H-2-indolyl)ethyl)-1H-3-indolyl)-1-methyl-2,5-dihydro-1H-pyrrole-2,5-dione] returned a melting point of 179 °C.
Same read-out and setting: next, `CN1C(=O)C(Br)=C(c2c(CCCCc3[nH]c4ccccc4c3C3=C(Br)C(=O)N(C)C3=O)[nH]c3ccccc23)C1=O` [Example 117, 3-Bromo-4-(2-(4-(3-(4-bromo-1-methyl-2,5-dioxo-2,5-dihydro-1H-3-pyrrolyl)-1H-2-indolyl)butyl)-1H-3-indolyl)-1-methyl-2,5-dihydro-1H-pyrrole-2,5-dione]: 190 °C (dec.).
`CN1C(=O)C(Br)=C(c2c(CCCCCCCCc3[nH]c4ccccc4c3C3=C(Br)C(=O)N(C)C3=O)[nH]c3ccccc23)C1=O` [Example 118, 3-Bromo-4-(2-(8-(3-(4-bromo-1-methyl-2,5-dioxo-2,5-dihydro-1H-3-pyrrolyl)-1H-2-indolyl)octyl)-1H-3-indolyl)-1-methyl-2,5-dihydro-1H-pyrrole-2,5-dione]: the melting point is 185 °C (dec.).
On the same count and under the same terms, the figure for `O=C1NC(=O)C(c2c(CCCCCCCCCCc3[nH]c4ccccc4c3C3=C(Br)C(=O)NC3=O)[nH]c3ccccc23)=C1Br` [Example 120, 3-Bromo-4-(2-(10-(3-(4-bromo-2,5-dioxo-2,5-dihydro-1H-3-pyrrolyl)-1H-2-indolyl)decyl)-1H-3-indolyl)-2,5-dihydro-1H-pyrrole-2,5-dione] is 164 °C (dec.).
Still for that read-out and setting: the figure for `CN1C(=O)C(c2c(CCCCCc3[nH]c4ccccc4c3C3=C(N4CCCCC4)C(=O)N(C)C3=O)[nH]c3ccccc23)=C(N2CCCCC2)C1=O` [Example 124, 1-Methyl-3-(1-piperidinyl)-4-(2-(5-(3-(1-methyl-4-(1-piperidinyl)-2,5-dioxo-2,5-dihydro-1H-3-pyrrolyl)-1H-2-indolyl)pentyl)-1H-3-indolyl)-2,5-dihydro-1H-pyrrole-2,5-dione] is 262 °C.

In general, melting point refers to the temperature of the solid-liquid transition.
